According to the OPERA property sets (Mansouri et al. 2018):

Conditions: for log10 BCF / log10 biotransformation half-life (days): fish

Row | Structure (SMILES) | boiling point | melting point | further results
1 | O=C(O)c1ccc(C(=O)O)cc1 | – | – | log10 vapour pressure (mmHg): -5.04; ready biodegradability: readily biodegradable
2 | CCCCOCCOCCOCCCC | 256 °C | -60 °C | log10 vapour pressure (mmHg): -1.58
3 | Cc1c2ccccc2cc2ccc3ccccc3c12 | – | 138 °C | –
4 | O=C(O)CCCCCCCBr | – | 38.5 °C | –
5 | CC(C)CC(C)(C)C | 99.2 °C | -107 °C | log10 biodegradation half-life (days): 1.6; log10 vapour pressure (mmHg): 1.69; ready biodegradability: not readily biodegradable
6 | CCSCC | 92.1 °C | -104 °C | log10 Henry constant (atm·m³/mol): -2.77; log10 vapour pressure (mmHg): 1.78
7 | Cc1ccc(/N=C/N(C)/C=N/c2ccc(C)cc2C)c(C)c1 | – | 86 °C | log10 Henry constant (atm·m³/mol): -5.01; log10 Koc (L/kg): 3; log10 vapour pressure (mmHg): -5.7
8 | C1=Cc2cccc3cccc1c23 | 280 °C | 92.5 °C | log10 Henry constant (atm·m³/mol): -3.94; log10 Koc (L/kg): 3.75; log10 biodegradation half-life (days): 1.58; log10 vapour pressure (mmHg): -2.18; ready biodegradability: readily biodegradable; log10 BCF: 2.43; log10 biotransformation half-life (days): 0.52
9 | COC(=O)C(C)C(C)=O (stereo not drawn) | 177 °C | – | –
10 | Cc1cc(CC(C)CC(C)(C)C)n(O)c(=O)c1 (stereo not drawn) | – | 108 °C | –
11 | COCCOc1cnc(NS(=O)(=O)c2ccccc2)nc1 | – | 153 °C | –
12 | Cc1[nH]c(C)c(C)c1C | – | 111 °C | –
13 | C=C(C)c1ccccc1 | 165 °C | -23.2 °C | log10 vapour pressure (mmHg): 0.279; ready biodegradability: not readily biodegradable; log10 BCF: 1.8; log10 biotransformation half-life (days): -0.71
14 | CSc1ccc(O)cc1 | – | – | ready biodegradability: not readily biodegradable
15 | c1ccc(C2CCCC2)cc1 | 219 °C | – | –
16 | CCCCNCC | 108 °C | -78 °C | ready biodegradability: readily biodegradable
17 | S=C=Nc1cccc2ccccc12 | – | 58 °C | –
18 | CC(Cl)(Cl)CCl | 124 °C | – | –
19 | Cc1cc(C2CCCCC2)n(O)c(=O)c1 | – | 144 °C | –
20 | O=CCC(O)[C@H](O)CO (stereo in doubt) | – | 91 °C | –
21 | C=CCCCCCCC(=O)O | – | 5 °C | –
22 | c1cnc2c(c1)ccc1cccnc12 | – | 117 °C | –
23 | Cc1cc(OC(=O)N(C)C)n(-c2ccccc2)n1 | – | 50 °C | –
24 | Oc1cccnc1 | – | – | ready biodegradability: readily biodegradable

Row | Structure (SMILES) | boiling point | melting point | further results
25 | CCC1CC1 | 35.9 °C | -149 °C | –
26 | Cc1ccc2ccc3cccc4ccc1c2c34 | – | – | log10 biodegradation half-life (days): 1.96; log10 biotransformation half-life (days): 0.11
27 | O=C(O)c1cc(Cl)cc(Cl)c1 | – | 188 °C | –
28 | Oc1ccccc1-c1ccccc1 | 286 °C | 59 °C | log10 vapour pressure (mmHg): -2.7; ready biodegradability: readily biodegradable
29 | CCC1(CC)C(=O)NC(=S)NC1=O | – | 180 °C | –
30 | Nc1ccccc1S(=O)(=O)O | – | – | ready biodegradability: not readily biodegradable
31 | CCCCCCCCCCCC(C)O (stereo not drawn) | – | 23 °C | –
32 | CCOC(=O)C(=O)CC(C)=O | 214 °C | 18 °C | –
33 | CC(=O)CC(=O)Nc1ccccc1C | – | 105 °C | ready biodegradability: readily biodegradable
34 | CCCC=CC(=O)O | 216 °C | 36.5 °C | –
35 | CCC(C)(C)C(=O)Cl | 132 °C | – | –
36 | FC(Cl)(Br)Br | 80.3 °C | – | –
37 | CC(C)C(Br)C(=O)NC(N)=O (stereo not drawn) | – | 154 °C | –
38 | FC(F)(F)C(F)(F)Cl | -37.9 °C | -99.4 °C | log10 vapour pressure (mmHg): 3.84
39 | CCC(c1ccc(O)cc1)c1ccc(O)cc1 | – | 132 °C | –
40 | CC(C)(Oc1ccc(CCNC(=O)c2ccc(Cl)cc2)cc1)C(=O)O | – | 186 °C | –
41 | CC(=O)NC(N)=S | – | 165 °C | –
42 | FC(F)(F)C1(F)OC1(F)F (stereo not drawn) | -27.4 °C | – | –
43 | CC(C)CNCC(C)C | 140 °C | -73.5 °C | log10 vapour pressure (mmHg): 0.862; ready biodegradability: readily biodegradable
44 | CC(=O)OC(C)CC(C)C (stereo not drawn) | 148 °C | -64 °C | log10 vapour pressure (mmHg): 0.602; ready biodegradability: readily biodegradable
45 | CCN(CCO)c1ccc(/N=N/c2ccc([N+](=O)[O-])cc2Cl)cc1 | – | 133 °C | –
46 | CN=C(O)Sc1ccc(OS(C)(=O)=O)cc1 | – | 137 °C | –
47 | c1ccc2cc3c(cc2c1)-c1cccc2cccc-3c12 | 480 °C | 217 °C | log10 Henry constant (atm·m³/mol): -6.23; log10 Koc (L/kg): 4.34; log10 biodegradation half-life (days): 2.55; log10 vapour pressure (mmHg): -9.02; ready biodegradability: not readily biodegradable; log10 biotransformation half-life (days): -0.06
48 | C=COC(C)=O | 72.5 °C | -93.2 °C | log10 vapour pressure (mmHg): 1.96; ready biodegradability: readily biodegradable

Row | Structure (SMILES) | boiling point | melting point | further results
49 | c1ccc2nc3ccccc3cc2c1 | 346 °C | 108 °C | log10 Koc (L/kg): 4.18; log10 vapour pressure (mmHg): -3.87; log10 BCF: 2.1
50 | CCOC(=O)C(C)=O | 155 °C | -50 °C | –
51 | Cc1coc(C)c1 | 94 °C | – | –
52 | CCC1CCC(C)CC1 (stereo not drawn) | 151 °C | -80.8 °C | –
53 | O=[N+]([O-])c1ccc(Br)cc1 | 256 °C | 127 °C | log10 Koc (L/kg): 2.42
54 | CCOc1ccc(CC(=O)O)cc1 | – | 88.5 °C | –
55 | COc1c(Cl)c(Cl)cc(Cl)c1Cl | – | 88.5 °C | log10 BCF: 3.69
56 | Cc1cccc(Br)c1C | 214 °C | – | –
57 | CC#CC#CC | 130 °C | 67.8 °C | –
58 | CC(C)NC(=O)COC(=O)c1ccccc1 | – | 130 °C | –
59 | Cc1ccc(Cc2ccc(C)cc2)cc1 | 286 °C | 28 °C | –
60 | CC(C)CCC(=O)c1ccoc1 | 196 °C | – | –
61 | CCC(Oc1ccccc1)C(=O)O (stereo not drawn) | 258 °C | 98 °C | –
62 | CC(=O)CCc1ccco1 | 203 °C | – | –
63 | CC(Cl)(Cl)C(=O)[O-].[Na+] | – | 166 °C | –
64 | CC[C@H](C)CC=O | 121 °C | – | –
65 | CCCCCC=CCC=CCCCCCCCC(=O)O | – | – | ready biodegradability: readily biodegradable
66 | COc1ccc(N)cc1Cl | – | 52.5 °C | log10 Koc (L/kg): 1.93
67 | CCCCC=C(C)C | 123 °C | – | log10 vapour pressure (mmHg): 1.25
68 | CC(C)(Oc1ccc(Cl)cc1)C(=O)OCCOC(=O)c1cccnc1 | – | 100 °C | –
69 | Cc1c(Cl)cccc1[N+](=O)[O-] | 238 °C | 37.8 °C | log10 BCF: 1.99
70 | CC(=O)C=O | 72 °C | – | log10 Henry constant (atm·m³/mol): -6.57
71 | Cc1ccc(C(=O)c2ccccc2)c(C)c1 | 322 °C | – | –
72 | CCCOCC(C)OCC(C)O (stereo not drawn) | 212 °C | 7.08 °C | –

Row | Structure (SMILES) | boiling point | melting point | further results
73 | CCCCCCCCCCCCCCCCCC(=O)OC[C@@H](O)[C@H]1OC[C@H](O)[C@H]1O | – | 57 °C | –
74 | CC(C)(CCl)C(=O)O | – | 41.5 °C | –
75 | CCC(O)C(C)O (stereo not drawn) | 188 °C | – | –
76 | O=C(O)c1cc(Cl)ccc1Cl | 301 °C | 154 °C | ready biodegradability: not readily biodegradable
77 | Nc1cccc([N+](=O)[O-])c1 | 306 °C | 114 °C | log10 Henry constant (atm·m³/mol): -8.1; log10 Koc (L/kg): 1.73; log10 vapour pressure (mmHg): -4.02; ready biodegradability: not readily biodegradable; log10 BCF: 0.48; log10 biotransformation half-life (days): -0.77
78 | CN(C)CCCOc1nn(Cc2ccccc2)c2ccccc12.Cl | – | 160 °C | –
79 | O=Cc1cc([N+](=O)[O-])ccc1O | – | 129 °C | –
80 | NS(=O)(=O)c1cc(-c2nnn[nH]2)c(NCc2cccs2)cc1Cl | – | 220 °C | –
81 | CC(c1ccccc1)c1ccc(O)cc1 (stereo not drawn) | – | – | ready biodegradability: not readily biodegradable
82 | C=C1CC(=O)O1 | 126 °C | -6.5 °C | log10 vapour pressure (mmHg): 1.03; ready biodegradability: readily biodegradable
83 | CC1CCCCS1 (stereo not drawn) | 153 °C | -58 °C | –
84 | CN(C)P(=O)(OP(=O)(N(C)C)N(C)C)N(C)C | – | 17 °C | log10 vapour pressure (mmHg): -3
85 | CCCCN(CCCC)SN(C)C(=O)Oc1cccc2c1OC(C)(C)C2 | – | – | log10 vapour pressure (mmHg): -6.51
86 | C[N+](C)(C)CCOC(Cc1ccccc1)c1ccccc1.[Br-] (stereo not drawn) | – | 146 °C | –
87 | CNC(=O)n1cc(F)c(=O)[nH]c1=O | – | 226 °C | –
88 | OCCN1CCN(CCCN2c3ccccc3C=Cc3ccccc32)CC1 | – | 100 °C | –
89 | NCCc1ccc(Br)cc1 | – | – | ready biodegradability: readily biodegradable
90 | CCCCCCCCCCOCCCCCCCCCC | – | – | ready biodegradability: readily biodegradable
91 | O=C(O)c1ccccc1 | 249 °C | 122 °C | log10 Koc (L/kg): 1.5; log10 vapour pressure (mmHg): -3.15; ready biodegradability: readily biodegradable
92 | C[Si](C)(CCl)c1ccccc1 | 225 °C | – | –
93 | CCCCOC(=O)CCC(C)=O | 238 °C | – | –
